Results: the NIST ThermoML archive (doi:10.1016/j.fluid.2011.11.005)

Assay: excess molar enthalpy (molar enthalpy of mixing); xn = mol fraction of the nth substance listed
Details: 101 kPa, Liquid, Flow calorimetry

CC(C)CC(C)(C)C [2,2,4-trimethylpentane] + CCCCO
313.15 K
Details | excess molar enthalpy [kcal/mol]
x1 = 0.0502 | 0.0251
x1 = 0.1001 | 0.0487
x1 = 0.1505 | 0.072
x1 = 0.2003 | 0.0939
x1 = 0.2505 | 0.115
x1 = 0.3001 | 0.134
x1 = 0.3504 | 0.152
x1 = 0.4001 | 0.167
x1 = 0.4499 | 0.181
x1 = 0.5008 | 0.192
x1 = 0.5501 | 0.2
x1 = 0.5999 | 0.205
x1 = 0.6498 | 0.207
x1 = 0.7 | 0.206
x1 = 0.75 | 0.201
x1 = 0.7996 | 0.193
x1 = 0.8502 | 0.179
x1 = 0.9001 | 0.159
x1 = 0.9506 | 0.125

CCCCO [butan-1-ol] + Cc1ccccc1
excess molar enthalpy [kcal/mol]
Details | 298.15 K | 313.15 K
x2 = 0.0504 | 0.0245 | 0.0341
x2 = 0.0998 | 0.0498 | –
x2 = 0.0999 | – | 0.0685
x2 = 0.1501 | 0.0753 | 0.102
x2 = 0.2011 | 0.101 | 0.136
x2 = 0.251 | 0.125 | –
x2 = 0.2512 | – | 0.166
x2 = 0.2999 | 0.148 | –
x2 = 0.3 | – | 0.195
x2 = 0.3495 | 0.169 | –
x2 = 0.3496 | – | 0.221
x2 = 0.3998 | 0.189 | –
x2 = 0.4 | – | 0.243
x2 = 0.4509 | 0.207 | –
x2 = 0.4511 | – | 0.264
x2 = 0.5009 | 0.221 | –
x2 = 0.501 | – | 0.279
x2 = 0.5495 | 0.231 | –
x2 = 0.5496 | – | 0.291
x2 = 0.6009 | 0.239 | –
x2 = 0.601 | – | 0.299
x2 = 0.6509 | 0.242 | –
x2 = 0.6511 | – | 0.302
x2 = 0.6996 | 0.24 | –
x2 = 0.6998 | – | 0.298
x2 = 0.7512 | 0.234 | –
x2 = 0.7513 | – | 0.29
x2 = 0.7992 | 0.222 | 0.274
x2 = 0.85 | 0.203 | 0.249
x2 = 0.8993 | 0.174 | 0.21
x2 = 0.9493 | 0.124 | 0.143

C1CCCCC1 [cyclohexane] + CCCCO
313.15 K
Details | excess molar enthalpy [kcal/mol]
x1 = 0.0505 | 0.0234
x1 = 0.1001 | 0.0459
x1 = 0.1505 | 0.0679
x1 = 0.2 | 0.0885
x1 = 0.2505 | 0.108
x1 = 0.2999 | 0.126
x1 = 0.3501 | 0.143
x1 = 0.4003 | 0.158
x1 = 0.4504 | 0.171
x1 = 0.5003 | 0.182
x1 = 0.55 | 0.19
x1 = 0.5995 | 0.195
x1 = 0.6499 | 0.197
x1 = 0.7 | 0.194
x1 = 0.7499 | 0.188
x1 = 0.7995 | 0.178
x1 = 0.8499 | 0.163
x1 = 0.8999 | 0.142
x1 = 0.9496 | 0.109

C=CCCCC [hex-1-ene] + CCCCO
excess molar enthalpy [kcal/mol]
Details | 298.15 K | 313.15 K
x1 = 0.05 | 0.0104 | 0.0188
x1 = 0.1001 | – | 0.0398
x1 = 0.1002 | 0.0234 | –
x1 = 0.1505 | – | 0.0602
x1 = 0.1506 | 0.0372 | –
x1 = 0.2002 | – | 0.0812
x1 = 0.2003 | 0.0527 | –
x1 = 0.2499 | – | 0.102
x1 = 0.25 | 0.0676 | –
x1 = 0.3004 | – | 0.121
x1 = 0.3005 | 0.0829 | –
x1 = 0.3498 | – | 0.141
x1 = 0.35 | 0.0967 | –
x1 = 0.4 | – | 0.158
x1 = 0.4001 | 0.11 | –
x1 = 0.4498 | – | 0.174
x1 = 0.4499 | 0.123 | –
x1 = 0.5001 | – | 0.188
x1 = 0.5003 | 0.134 | –
x1 = 0.5501 | – | 0.198
x1 = 0.5503 | 0.143 | –
x1 = 0.5995 | – | 0.206
x1 = 0.5996 | 0.149 | –
x1 = 0.6504 | – | 0.21
x1 = 0.6505 | 0.154 | –
x1 = 0.7005 | – | 0.211
x1 = 0.7006 | 0.155 | –
x1 = 0.7498 | – | 0.207
x1 = 0.7499 | 0.153 | –
x1 = 0.8005 | – | 0.2
x1 = 0.8006 | 0.147 | –
x1 = 0.8503 | 0.138 | 0.187
x1 = 0.9002 | 0.123 | 0.166
x1 = 0.9501 | 0.0969 | 0.127

C=CCCCC [hex-1-ene] + CCCCOCCCC
excess molar enthalpy [kcal/mol]
Details | 298.15 K | 313.15 K
x2 = 0.0503 | -0.000741 | -0.001
x2 = 0.1001 | -0.00139 | –
x2 = 0.15 | – | -0.00296
x2 = 0.1501 | -0.00258 | –
x2 = 0.2 | -0.0033 | -0.00382
x2 = 0.25 | -0.00402 | -0.00447
x2 = 0.2997 | – | -0.00497
x2 = 0.2998 | -0.00452 | –
x2 = 0.3502 | -0.00488 | –
x2 = 0.3503 | – | -0.0054
x2 = 0.3994 | -0.00519 | –
x2 = 0.3995 | – | -0.00566
x2 = 0.4502 | -0.00533 | –
x2 = 0.4503 | – | -0.00581
x2 = 0.4995 | -0.00543 | –
x2 = 0.4997 | – | -0.00586
x2 = 0.5494 | -0.00533 | –
x2 = 0.5495 | – | -0.00578
x2 = 0.5996 | -0.00511 | –
x2 = 0.5997 | – | -0.00557
x2 = 0.6491 | -0.0048 | –
x2 = 0.6493 | – | -0.00521
x2 = 0.7001 | -0.00437 | –
x2 = 0.7002 | – | -0.00468
x2 = 0.7491 | -0.00382 | –
x2 = 0.7492 | – | -0.00425
x2 = 0.7995 | -0.00296 | –
x2 = 0.7996 | – | -0.00361
x2 = 0.8501 | -0.00232 | -0.00284
x2 = 0.8996 | -0.00155 | -0.00203
x2 = 0.9504 | -0.000717 | -0.00108

CC1CCCCC1 [methylcyclohexane] + CCCCO
excess molar enthalpy [kcal/mol]
Details | 298.15 K | 313.15 K
x1 = 0.0498 | 0.0151 | 0.0212
x1 = 0.1 | 0.0301 | 0.0424
x1 = 0.1505 | 0.0449 | 0.0629
x1 = 0.2005 | 0.0588 | 0.0826
x1 = 0.2506 | 0.0725 | –
x1 = 0.2507 | – | 0.101
x1 = 0.3 | 0.0852 | 0.119
x1 = 0.3502 | 0.0974 | 0.135
x1 = 0.4002 | 0.109 | 0.15
x1 = 0.45 | – | 0.163
x1 = 0.4501 | 0.119 | –
x1 = 0.5006 | – | 0.174
x1 = 0.5007 | 0.127 | –
x1 = 0.5497 | 0.134 | 0.182
x1 = 0.6004 | 0.138 | 0.188
x1 = 0.6505 | 0.14 | 0.19
x1 = 0.6999 | 0.14 | –
x1 = 0.7 | – | 0.189
x1 = 0.7498 | 0.136 | 0.184
x1 = 0.7999 | 0.129 | –
x1 = 0.8 | – | 0.176
x1 = 0.8504 | 0.118 | 0.162
x1 = 0.8997 | 0.104 | 0.144
x1 = 0.9505 | 0.0814 | 0.112

CC1CCCCC1 [methylcyclohexane] + CCCCOCCCC
excess molar enthalpy [kcal/mol]
Details | 298.15 K | 313.15 K
x2 = 0.0497 | 0.0055 | 0.00497
x2 = 0.1003 | 0.0103 | 0.00908
x2 = 0.1501 | 0.0137 | 0.0126
x2 = 0.1997 | 0.0165 | –
x2 = 0.1998 | – | 0.0153
x2 = 0.2501 | 0.0189 | 0.0175
x2 = 0.3002 | 0.0207 | 0.0193
x2 = 0.3499 | 0.0218 | –
x2 = 0.35 | – | 0.0203
x2 = 0.3993 | 0.0225 | –
x2 = 0.3994 | – | 0.0211
x2 = 0.45 | 0.0228 | –
x2 = 0.4501 | – | 0.0215
x2 = 0.4993 | 0.0226 | 0.0213
x2 = 0.5499 | 0.022 | –
x2 = 0.55 | – | 0.0207
x2 = 0.5999 | 0.021 | –
x2 = 0.6 | – | 0.0197
x2 = 0.6491 | 0.0196 | –
x2 = 0.6492 | – | 0.0184
x2 = 0.6997 | 0.0177 | 0.0168
x2 = 0.7493 | 0.0156 | 0.0147
x2 = 0.8002 | 0.0131 | 0.0123
x2 = 0.8501 | 0.0103 | 0.00966
x2 = 0.9001 | 0.00707 | 0.00674
x2 = 0.95 | 0.00356 | –
x2 = 0.9501 | – | 0.00339
